In patent publication US20260258032A1, “TYROSINE KINASE 2 INHIBITORS AND USES THEREOF” (BIOGEN MA INC., priority 2022, published 2026):
Structures can show the parent of a compound that is named as a salt.

What was measured:
[1] = system: Tyk2 kinase activity on STAT4; experiment: pSTAT4 cell assay (MSD, NK92 cells); type: cell-based; details: compounds 1 hr
Experimental: The inhibitory potency of compounds of the disclosure against the Tyk2 kinase activity on STAT4 was evaluated using an MSD-platform plate-based assay format. NK92 cells natively expressing STAT4 and Tyk2 were serum-starved to reduce background phosphorylation levels, then cells were treated compounds for 1 hr with a 10-point four-fold dilution series starting at 10 μM. Cells were then stimulated with 30 ng/mL IL2 for 15 minutes. Cells were lysed and […] levels were quantitated using an MSD plate-based assay with anti-STAT4 antibodies. The data were normalized and the percent activity versus log concentration of compound were fitted with a 4-parameter logistic model to generate to generate IC50 curves.

JH2 domain of human Tyk2 = molecular target: T1, JH2 domain of human Tyk2 (Homo sapiens, UniProt P29597); experiment: JH2 biochemical assay (TR-FRET probe displacement); type: binding
T1 construct: 10×His-tagged TYK2 JH2 domain (amino acid 575-876)
T1 sequence (P29597 575-876): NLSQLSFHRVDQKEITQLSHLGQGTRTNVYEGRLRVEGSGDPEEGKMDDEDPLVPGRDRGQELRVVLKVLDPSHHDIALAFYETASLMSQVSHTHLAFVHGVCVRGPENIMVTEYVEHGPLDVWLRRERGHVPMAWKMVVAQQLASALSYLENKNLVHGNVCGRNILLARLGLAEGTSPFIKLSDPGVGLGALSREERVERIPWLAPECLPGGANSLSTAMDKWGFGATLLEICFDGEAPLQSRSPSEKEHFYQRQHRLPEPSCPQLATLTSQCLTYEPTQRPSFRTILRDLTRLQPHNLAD
In short: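 A probe-displacement TR-FRET readout: compounds, tested in 3-fold, 10-point dilutions starting at […], compete with 2 nM tracer for 2 nM His-tagged JH2 (residues 575-876) detected by 0.1 nM Tb-anti-His over 60 min. IC50 comes from 4-parameter fits of normalized 520/495 nm ratios.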

[2] = TR-FRET probe displacement, JH2 domain of human Tyk2

Structure (SMILES) | IC50 ([1]; stimulated 15 minutes) [nM] | IC50 (JH2 domain of human Tyk2; JH2 biochemical assay) [nM] | IC50 ([1]; then stimulated 15 minutes) [nM] | IC50 (JH2 domain of human Tyk2; [2]) [nM]
CC(=O)Nc1cc2c(cn1)C1(CC1)CN2c1cc(C)nc(C23COC(C)(C2)C3)n1 [Example 318, N-(1′-(6-methyl-2-(1-methyl-2-oxabicyclo[2.1.1]hexan-4-yl)pyrimidin-4-yl)-1′,2′-dihydrospiro[cyclopropane-1,3′-pyrrolo[3,2-c]pyridin]-6′-yl)acetamide] | ≥ 1000 | 10 to 100 | – | –
CC(=O)Nc1cc2c(cn1)C1(CC1)CN2c1cc(C)nc(OC2CC(C#N)C2)n1 (stereo not drawn) [Example 375, N-(1′-(2-(3-cyanocyclobutoxy)-6-methylpyrimidin-4-yl)-1′,2′-dihydrospiro[cyclopropane-1,3′-pyrrolo[3,2-c]pyridin]-6′-yl)acetamide] | – | – | ≥ 1000 | 100 to 1000
CC(=O)Nc1cc2c(cn1)C1(CC1)CN2c1cc(-c2cnn(CCN3CCOCC3)c2)nc(C(C)(F)F)n1 [Example 390, N-(1′-(2-(1,1-difluoroethyl)-6-(1-(2-morpholinoethyl)-1H-pyrazol-4-yl)pyrimidin-4-yl)-1′,2′-dihydrospiro[cyclopropane-1,3′-pyrrolo[3,2-c]pyridin]-6′-yl)acetamide trifluoroacetate] | – | – | ≤ 10 | ≤ 10
CC(=O)Nc1cc2c(cn1)C1(CC1)CN2c1cc(C)nc(OCC2CC2)n1 [Example 369, N-(1′-(2-(cyclopropylmethoxy)-6-methylpyrimidin-4-yl)-1′,2′-dihydrospiro[cyclopropane-1,3′-pyrrolo[3,2-c]pyridin]-6′-yl)acetamide] | ≥ 1000 | 100 to 1000 | – | –
CC(=O)Nc1cc2c(cn1)C1(CC1)CN2c1cc(C)cc(OCC2CC2)n1 [Example 352, N-(1′-(6-(cyclopropylmethoxy)-4-methylpyridin-2-yl)-1′,2′-dihydrospiro[cyclopropane-1,3′-pyrrolo[3,2-c]pyridin]-6′-yl)acetamide trifluoroacetate] | ≥ 1000 | 100 to 1000 | – | –
CC(=O)Nc1cc2c(cn1)C1(CC1)CN2c1cc(C)cc(N2CCC(N(C)C)C2)n1 (stereo not drawn) [Example 192, N-(1′-(6-(3-(dimethylamino)pyrrolidin-1-yl)-4-methylpyridin-2-yl)-1′,2′-dihydrospiro[cyclopropane-1,3′-pyrrolo[3,2-c]pyridin]-6′-yl)acetamide trifluoroacetate] | ≥ 1000 | 100 to 1000 | – | –
CC(=O)Nc1cc2c(cn1)C1(CC1)CN2c1cc(-c2cnn(C)c2C(F)F)nc(C(C)(F)F)n1 [Example 385, N-(1′-(2-(1,1-difluoroethyl)-6-(5-(difluoromethyl)-1-methyl-1H-pyrazol-4-yl)pyrimidin-4-yl)-1′,2′-dihydrospiro[cyclopropane-1,3′-pyrrolo[3,2-c]pyridin]-6′-yl)acetamide trifluoroacetate] | – | – | 10 to 100 | ≤ 10
CC(=O)Nc1cc2c(cn1)C1(CC1)CN2c1cc(C)nc(C(C)C)n1 [Example 66, N-(1′-(2-isopropyl-6-methylpyrimidin-4-yl)-1′,2′-dihydrospiro[cyclopropane-1,3′-pyrrolo[3,2-c]pyridin]-6′-yl)acetamide] | 100 to 1000 | ≤ 10 | – | –
CC(=O)Nc1cc2c(cn1)C1(CC1)CN2c1cc(-c2cnn(C)c2F)nc(C(C)(F)F)n1 [Example 310, N-(1′-(2-(1,1-difluoroethyl)-6-(5-fluoro-1-methyl-1H-pyrazol-4-yl)pyrimidin-4-yl)-1′,2′-dihydrospiro[cyclopropane-1,3′-pyrrolo[3,2-c]pyridin]-6′-yl)acetamide] | 10 to 100 | ≤ 10 | – | –
COC(C)(C)c1nc(C)cc(N2CC3(CC3)c3cnc(NC(C)=O)cc32)n1 [Example 129, N-(1′-(2-(2-methoxypropan-2-yl)-6-methylpyrimidin-4-yl)-1′,2′-dihydrospiro[cyclopropane-1,3′-pyrrolo[3,2-c]pyridin]-6′-yl)acetamide] | 100 to 1000 | 10 to 100 | – | –
CC(=O)Nc1cc2c(cn1)C1(CC1)CN2c1cc(C)nc(N2CCCC2)n1 [Example 114, N-(1′-(6-methyl-2-(pyrrolidin-1-yl)pyrimidin-4-yl)-1′,2′-dihydrospiro[cyclopropane-1,3′-pyrrolo[3,2-c]pyridin]-6′-yl)acetamide] | 100 to 1000 | 10 to 100 | – | –
CC(=O)Nc1cc2c(cn1)C1(CC1)CN2c1cc(OCCN(C)C)nc(C(C)(F)F)n1 [Example 140, N-(1′-(2-(1,1-difluoroethyl)-6-(2-(dimethylamino)ethoxy)pyrimidin-4-yl)-1′,2′-dihydrospiro[cyclopropane-1,3′-pyrrolo[3,2-c]pyridin]-6′-yl)acetamide trifluoroacetate] | ≥ 1000 | 10 to 100 | – | –
CC(=O)Nc1cc2c(cn1)C1(CC1)CN2c1cc(NC2CC2C)nc(C(C)(F)F)n1 (stereo not drawn) [Example 182, N-(1′-(2-(1,1-difluoroethyl)-6-((2-methylcyclopropyl)amino)pyrimidin-4-yl)-1′,2′-dihydrospiro[cyclopropane-1,3′-pyrrolo[3,2-c]pyridin]-6′-yl)acetamide trifluoroacetate] | 10 to 100 | ≤ 10 | – | –
COC1(C)CC1Nc1cc(N2CC3(CC3)c3cnc(NC(C)=O)cc32)nc(C(C)(F)F)n1 (stereo not drawn) [Example 173, N-(1′-(2-(1,1-difluoroethyl)-6-((2-methoxy-2-methylcyclopropyl)amino)pyrimidin-4-yl)-1′,2′-dihydrospiro[cyclopropane-1,3′-pyrrolo[3,2-c]pyridin]-6′-yl)acetamide trifluoroacetate] | 10 to 100 | ≤ 10 | – | –
CC(=O)Nc1cc2c(cn1)C1(CC1)CN2c1cc(C)nc(F)n1 [Example 332, N-(1′-(2-fluoro-6-methylpyrimidin-4-yl)-1′,2′-dihydrospiro[cyclopropane-1,3′-pyrrolo[3,2-c]pyridin]-6′-yl)acetamide trifluoroacetate] | ≥ 1000 | 100 to 1000 | – | –
CC(=O)Nc1cc2c(cn1)C1(CC1)CN2c1cc(C)cc(-c2cnn(S(C)(=O)=O)c2)n1 [Example 258, N-(1′-(4-methyl-6-(1-(methylsulfonyl)-1H-pyrazol-4-yl)pyridin-2-yl)-1′,2′-dihydrospiro[cyclopropane-1,3′-pyrrolo[3,2-c]pyridin]-6′-yl)acetamide trifluoroacetate] | 100 to 1000 | 10 to 100 | – | –
CC(=O)Nc1cc2c(cn1)C1(CC1)CN2c1cc(OC2CCN(C)C2)nc(C(C)(F)F)n1 (stereo not drawn) [Example 359, N-(1′-(2-(1,1-difluoroethyl)-6-((1-methylpyrrolidin-3-yl)oxy)pyrimidin-4-yl)-1′,2′-dihydrospiro[cyclopropane-1,3′-pyrrolo[3,2-c]pyridin]-6′-yl)acetamide trifluoroacetate] | ≥ 1000 | 10 to 100 | – | –
CC(=O)Nc1cc2c(cn1)C1(CC1)CN2c1cc(C)nc(C2CCN(C(C)=O)CC2)n1 [Example 120, N-(1′-(2-(1-acetylpiperidin-4-yl)-6-methylpyrimidin-4-yl)-1′,2′-dihydrospiro[cyclopropane-1,3′-pyrrolo[3,2-c]pyridin]-6′-yl)acetamide] | ≥ 1000 | 100 to 1000 | – | –
CC(=O)Nc1cc2c(cn1)C1(CC1)CN2c1cc(C)cc(C2(O)CCOC2)n1 (stereo not drawn) [Example 95, N-(1′-(6-(3-hydroxytetrahydrofuran-3-yl)-4-methylpyridin-2-yl)-1′,2′-dihydrospiro[cyclopropane-1,3′-pyrrolo[3,2-c]pyridin]-6′-yl)acetamide] | 100 to 1000 | ≤ 10 | – | –
CC(=O)Nc1cc2c(cn1)C1(CC1)CN2c1cc(NCC2(F)CC2)nc(C(C)(F)F)n1 [Example 160, N-(1′-(2-(1,1-difluoroethyl)-6-(((1-fluorocyclopropyl)methyl)amino)pyrimidin-4-yl)-1′,2′-dihydrospiro[cyclopropane-1,3′-pyrrolo[3,2-c]pyridin]-6′-yl)acetamide trifluoroacetate] | 10 to 100 | ≤ 10 | – | –
CC(=O)Nc1cc2c(cn1)C1(CC1)CN2c1cc(Oc2cncnc2)nc(C(C)(F)F)n1 [Example 142, N-(1′-(2-(1,1-difluoroethyl)-6-(pyrimidin-5-yloxy)pyrimidin-4-yl)-1′,2′-dihydrospiro[cyclopropane-1,3′-pyrrolo[3,2-c]pyridin]-6′-yl)acetamide trifluoroacetate] | ≥ 1000 | 10 to 100 | – | –
CC(=O)Nc1cc2c(cn1)C1(CC1)CN2c1cc(-c2cnn(C3COC3)c2)nc(C(C)(F)F)n1 [Example 388, N-(1′-(2-(1,1-difluoroethyl)-6-(1-(oxetan-3-yl)-1H-pyrazol-4-yl)pyrimidin-4-yl)-1′,2′-dihydrospiro[cyclopropane-1,3′-pyrrolo[3,2-c]pyridin]-6′-yl)acetamide] | – | – | ≤ 10 | ≤ 10
CC(=O)Nc1cc2c(cn1)C1(CC1)CN2c1cc(C)nc(N(C)C)n1 [Example 116, N-(1′-(2-(dimethylamino)-6-methylpyrimidin-4-yl)-1′,2′-dihydrospiro[cyclopropane-1,3′-pyrrolo[3,2-c]pyridin]-6′-yl)acetamide] | ≥ 1000 | 10 to 100 | – | –
CC(=O)Nc1cc2c(cn1)C1(CC1)CN2c1cc(C)nc(N2CCC2C)n1 (stereo not drawn) [Example 235, N-(1′-(6-methyl-2-(2-methylazetidin-1-yl)pyrimidin-4-yl)-1′,2′-dihydrospiro[cyclopropane-1,3′-pyrrolo[3,2-c]pyridin]-6′-yl)acetamide] | 100 to 1000 | ≤ 10 | – | –
